Source: US20240116946A1 (Gilead Sciences, Inc., priority 2022, published 2024)
pEC50, pIC50: −log10 of the molar value. Read-outs that look alike come from different tables or passages of the source.

Experiments:
[1] = molecular target: recombinant SARS-CoV-2 Main protease (Mpro) (Severe acute respiratory syndrome coronavirus 2 (2019-nCoV) (SARS-CoV-2), UniProt P0DTD1); experiment: Cov Mpro Biochemical IC50 Assay; conditions: read-out: MPro IC50
[2] = test system: SARS-CoV-2-NLuc; experiment: microbe, parasite or virus in culture; assay type: cell-based, SARS Coronavirus 2
[3] = recombinant SARS-CoV-2 Mpro, fluorogenic peptide substrate
[4] = Severe acute respiratory syndrome coronavirus, 48 h, read-out: MPro EC50
[5] = recombinant SARS-CoV-2 Mpro 7.5 nM, fluorogenic peptide substrate 40 μM
[6] = Severe acute respiratory syndrome coronavirus, 48 h; read-out: MPro EC50

Compound | pIC50 [1, 3] | pEC50 [2, 4] | pIC50 [1, 5] | pEC50 ([2]; read-out: MPro EC50) | pEC50 [2, 6]
COc1cnc(Cl)c(-c2cc3[nH]c(=O)n(-c4cncc5ccccc45)c(=O)c3s2)c1 [Example 364, 6-(2-chloro-5-methoxypyridin-3-yl)-3-(isoquinolin-4-yl)thieno[3,2-d]pyrimidine-2,4(1H,3H)-dione] | 8.27 | 7.74 |  |  | 
COc1cc(-c2cc3[nH]c(=O)n(-c4cncc5ccccc45)c(=O)c3cc2F)c(C#N)cc1F (single isomer, unassigned) [Example 511, 5-fluoro-2-[6-fluoro-3-(4-isoquinolyl)-2,4-dioxo-1H-quinazolin-7-yl]-4-methoxy-benzonitrile] |  |  | 6.04 | 6.22 | 
COc1cc(C#N)c(-c2cc3c(s2)c(=O)n(-c2cncc4cnn(C)c24)c(=O)n3CCC#N)cc1F [Example 795] |  | 7.06 | 7.70 |  | 
COc1cc(-c2cccc(Cl)c2-c2ccc3c(=O)n(-c4cncc5ccccc45)c(=O)[nH]c3c2)cn2ncnc12 [Example 143] | 7.97 |  |  |  | 7.10
O=c1[nH]c2cc(-c3ccccc3Cl)sc2c(=O)n1-c1cncc2c1CCCO2 [Example 596] |  | 6.97 | 7.42 |  | 
CC(C)(C)OC(=O)N1CCn2ncc(-c3cccc(Cl)c3-c3ccc4c(=O)n(-c5cncc6ccccc56)c(=O)[nH]c4c3)c2C1 [Example 271] | 6.81 | 6.68 |  |  | 
Cc1c(-c2cccc(Cl)c2-c2ccc3c(=O)n(-c4cncc5ccccc45)c(=O)[nH]c3c2)cnn1C [Example 243] | 7.96 | 7.91 |  |  | 
N#CCCn1c(=O)n(-c2cncc(OC(F)F)c2)c(=O)c2sc(-c3ccccc3C#N)cc21 [Example 816] |  |  | 7.24 |  | 6.47
COc1cc(-c2cc3c(s2)c(=O)n(-c2cncc4ccccc24)c(=O)n3CCC#N)c(Cl)cc1F (single isomer, unassigned) [Example 638, 3-[6-(2-chloro-4-fluoro-5-methoxy-phenyl)-3-(4-isoquinolyl)-2,4-dioxo-thieno[3,2-d]pyrimidin-1-yl]propanenitrile] |  |  | 6.72 | 7.22 | 
O=c1c2sc(-c3ccccc3Cl)cc2n(Cc2ccnnc2)c(=O)n1-c1cncc2ccccc12 [Example 155] | 8.04 | 6.90 |  |  | 
Cc1nn(C)cc1-c1cc2[nH]c(=O)n(-c3cncc4ccccc34)c(=O)c2s1 [Example 363] | 6.89 | 6.10 |  |  | 
COc1ccc(Cl)c(-c2ccc3c(=O)n(-c4cncc5ccc(N6CC7(CNC(=O)C7)C6)cc45)c(=O)[nH]c3c2)c1 [Example 411] |  |  | 8.05 |  | 6.66
O=c1[nH]c2cc(-c3c(Cl)cccc3CO)ccc2c(=O)n1-c1cncc2ccccc12 [Example 99] | 6.67 | 6.31 |  |  | 
Cc1cncc(-n2c(=O)c3sc(-c4ccccc4C#N)cc3n(CCC#N)c2=O)c1 [Example 875] |  |  | 8.01 |  | 7.49
COc1cc(-c2cc3c(s2)c(=O)n(-c2cncc(F)c2C)c(=O)n3CCC#N)c(Cl)cc1F (single isomer, unassigned) [Example 1027, 3-[6-(2-chloro-4-fluoro-5-methoxy-phenyl)-3-(5-fluoro-4-methyl-3-pyridyl)-2,4-dioxo-thieno[3,2-d]pyrimidin-1-yl]propanenitrile] |  |  | 7.21 | 7.18 | 
Cn1cc(-c2cccc(Cl)c2-c2ccc3c(=O)n(-c4cncc5ccccc45)c(=O)[nH]c3c2)c(C2CC2)n1 [Example 262] | 8.21 | > 8.36 |  |  | 
COc1cc(-c2cc3c(s2)c(=O)n(-c2cncc4ccccc24)c(=O)n3CCCC#N)c(Cl)cc1F [Example 660] |  | 7.78 | 7.75 |  | 
COc1cc(-c2cc3c(s2)c(=O)n(-c2cncc4cccnc24)c(=O)n3CCC#N)c(Cl)cc1F (single isomer, unassigned) [Example 1036, 3-(6-(2-chloro-4-fluoro-5-methoxyphenyl)-3-(1,6-naphthyridin-8-yl)-2,4-dioxo-3,4-dihydrothieno[3,2-d]pyrimidin-1(2H)-yl)propanenitrile] |  |  | 8.85 | 9.18 | 
COc1cc(-c2cc(OC)c3c(=O)n(-c4cncc5ccccc45)c(=O)[nH]c3c2)c(C#N)cc1F [Example 680] |  |  | 7.66 | 7.68 | 
COc1cnc(C#N)c(-c2cc3c(s2)c(=O)n(-c2cncc4ccccc24)c(=O)n3CCC#N)c1 (single isomer, unassigned) [Example 1093, 3-(1-(2-cyanoethyl)-3-(isoquinolin-4-yl)-2,4-dioxo-1,2,3,4-tetrahydrothieno[3,2-d]pyrimidin-6-yl)-5-methoxypicolinonitrile] |  |  | 6.98 | 6.80 | 
CC(C)n1cc(-c2cccc(Cl)c2-c2ccc3c(=O)n(-c4cncc5ccccc45)c(=O)[nH]c3c2)c(C(F)(F)F)n1 [Example 282] | 6.83 | 7.14 |  |  | 
Cc1c(Cl)cncc1-n1c(=O)c2sc(-c3ccc(F)cc3Cl)cc2n(CCC#N)c1=O [Example 807] |  | 7.46 | 7.69 |  | 
O=c1[nH]c2cc(-c3ccccc3Cl)sc2c(=O)n1-c1cncc2ccccc12 [Example 1, 6-(2-chlorophenyl)-3-(isoquinolin-4-yl)thieno[3,2-d]pyrimidine-2,4(1H,3H)-dione] | 7.97 |  |  |  | 7.54

Compound | pIC50 [1, 3] | pEC50 [2, 4] | pIC50 [1, 5] | pEC50 ([2]; read-out: MPro EC50) | pEC50 [2, 6]
N#CCCn1c(=O)n(-c2cncc(CO)c2)c(=O)c2sc(-c3ccccc3C#N)cc21 [Example 1101] |  | < 6.00 | 7.44 |  | 
COc1ncc(-c2cccc(Cl)c2-c2ccc3c(=O)n(-c4cncc5ccccc45)c(=O)[nH]c3c2)cc1C#N [Example 186] | 6.95 | 7.29 |  |  | 
O=c1[nH]c2cc(-c3ccccc3Cl)sc2c(=O)n1-c1cncc2ccc(F)cc12 [Example 622, 6-(2-chlorophenyl)-3-(6-fluoroisoquinolin-4-yl)thieno[3,2-d]pyrimidine-2,4(1H,3H)-dione] |  |  | 7.81 |  | 7.41
O=c1[nH]c2cc(-c3c(Cl)cccc3-c3cn(CC(F)F)nn3)ccc2c(=O)n1-c1cncc2ccccc12 [Example 292] | 6.92 | 6.77 |  |  | 
COCc1ccccc1-c1cc2[nH]c(=O)n(-c3cncc4ccccc34)c(=O)c2s1 [Example 17] | 7.45 | 6.80 |  |  | 
COc1cc(-c2ccc3c(=O)n(-c4cncc5ccccc45)c(=O)[nH]c3c2)c(Cl)cc1C [Example 250] | 5.92 | 6.34 |  |  | 
COc1cc(-c2cc3[nH]c(=O)n(-c4cncc5cccnc45)c(=O)c3s2)c(C#N)cc1F [Example 543] |  | 6.62 | 8.00 |  | 
CC(=O)NC1CCN(c2ccc3cncc(-n4c(=O)[nH]c5cc(-c6ccccc6Cl)sc5c4=O)c3c2)CC1 [Example 388] | 7.73 | 6.67 |  |  | 
O=c1[nH]c2cc(-c3c(Cl)cccc3-c3cc(C(F)(F)F)c4ncnn4c3)ccc2c(=O)n1-c1cncc2ccccc12 [Example 145] | 7.62 |  |  |  | 7.37
COc1cc(-c2cc3c(s2)c(=O)n(-c2cncc4cnn(C)c24)c(=O)n3CC#N)c(Cl)cc1F (single isomer, unassigned) [Example 1012, 2-[6-(2-chloro-4-fluoro-5-methoxy-phenyl)-3-(1-methylpyrazolo[4,3-c]pyridin-7-yl)-2,4-dioxo-thieno[3,2-d]pyrimidin-1-yl]acetonitrile] |  |  | 8.70 | 8.50 | 
COc1cc(-c2cc3c(s2)c(=O)n(-c2cc(C)cnn2)c(=O)n3CCC#N)c(Cl)cc1F [Example 931] |  | 8.26 | 8.60 |  | 
COc1cc(-c2sc3c(=O)n(-c4cncc5ccccc45)c(=O)[nH]c3c2C)c(Cl)cc1F [Example 1016] |  |  | 6.45 |  | < 6.00
COc1cncc(-n2c(=O)c3sc(-c4ccccc4C#N)cc3n(CCC#N)c2=O)c1 [Example 814] |  |  | 7.35 |  | 6.87
N#CCCn1c(=O)n(-c2cncc(C(F)F)c2)c(=O)c2sc(-c3ccccc3C#N)cc21 [Example 888] |  |  | 7.59 |  | 7.04
COc1cc(-c2cc3c(s2)c(=O)n(-c2cncc(F)c2C)c(=O)n3CCC#N)c(C#N)cc1F [Example 849] |  | 7.52 | 7.89 |  | 
N#CCCn1c(=O)n(-c2cccnc2)c(=O)c2sc(-c3ccc(F)cc3Cl)cc21 [Example 800] |  |  | 7.49 |  | 6.94
COc1ccc(Cl)c(-c2cc3[nH]c(=O)n(-c4cncc5ccccc45)c(=O)c3cc2F)c1 [Example 211] | 7.26 |  |  |  | 7.15
O=C1NCc2ccc(-c3cccc(Cl)c3-c3ccc4c(=O)n(-c5cncc6ccccc56)c(=O)[nH]c4c3)cc21 [Example 236] | 7.06 | 6.64 |  |  | 
COCc1ccc(Cl)c(-c2ccc3c(=O)n(-c4cncc5ccccc45)c(=O)[nH]c3c2)c1 [Example 303] | 6.57 | 6.44 |  |  | 
Cc1nc2cncc(-n3c(=O)c4sc(-c5ccc(F)cc5Cl)cc4n(CCC#N)c3=O)c2n1C (single isomer, unassigned) [Example 965, 3-(6-(2-chloro-4-fluorophenyl)-3-(1,2-dimethyl-1H-imidazo[4,5-c]pyridin-7-yl)-2,4-dioxo-3,4-dihydrothieno[3,2-d]pyrimidin-1(2H)-yl)propanenitrile] |  |  | 7.70 | 7.11 | 
COc1cc(-c2cc3[nH]c(=O)n(-c4nncc5ccccc45)c(=O)c3s2)c(Cl)cc1F [Example 744] |  |  | 7.66 |  | 7.07
COc1cc(-c2cc3c(s2)c(=O)n(-c2cncc4ccccc24)c(=O)n3CC2(C#N)CC2)c(Cl)cc1F (single isomer, unassigned) [Example 636, 1-[[6-(2-chloro-4-fluoro-5-methoxy-phenyl)-3-(4-isoquinolyl)-2,4-dioxo-thieno[3,2-d]pyrimidin-1-yl]methyl]cyclopropanecarbonitrile] |  |  | 7.93 | 8.26 | 
CC(C)Oc1ccc(Cl)c(-c2cc3[nH]c(=O)n(-c4cncc5ccccc45)c(=O)c3s2)c1 [Example 346] | 7.13 | 6.62 |  |  | 
